In US6569846B1, “Palladium-substituted bacteriochlorophyll derivatives and use thereof” (Yeda Research and Development Co. Ltd., priority 1998, dated 2003):

System: M2R mouse melanoma cells
Experiment: Phototoxicity on M2R cells (Example 10, [3H]-thymidine incorporation)
Assay type: cell-based
Settings: pigments dissolved directly in culture medium containing 10% serum
Method: The diluted pigments were added and the cells were incubated in the dark for four hours at 37° C. Prior to illumination, the cells were washed once and replaced with fresh culture medium. The plates were then illuminated from the bottom for 10 minutes at room temperature and placed in the culture incubator at 37° C. in the dark. […] The following control systems were used: Dark control—untreated cells kept in the dark; Light control—cells not treated with sensitizer that were illuminated; Dark toxicity—cells treated with pigment but kept in the dark.

Pd-Bacteriopheophorbide a ethyl ester [Pd-BPheid-ethyl ester, reference compound]
concentration up to which not active at all (highest concentration tested): > 1 µM
